Values of other authors in article PMC8453901, “GLPG1205, a GPR84 Modulator: Safety, Pharmacokinetics, and Pharmacodynamics in Healthy Subjects” (Clinical Pharmacology in Drug Development, 2021).

Test system: histological lesions in the lung
Design: method as in PMID 29454750
Details: bleomycin-induced mouse model of pulmonary fibrosis, compared with vehicle; cited from earlier work

CCCCCc1cccc(CC(=O)O)c1 [PBI‐4050]
reduction of histological lesions in the lung: 47%
